# Results reported in patent US9359281B2, “Enantiomers of 2-hydroxy derivatives of fatty acids” (UNIVERSITAT DE LES ILLES BALEARS, priority 2011, dated 2016).
# Legend:
# enzyme EC 2.3.1.50 = assay: [3H]palmitate incorporation in lipid fractions of U118 cells; type: cell-based, human; parameters: dose or concentration left out as unconfirmed; conditions: U118, 24 h
# Description: FIG. 9. Regulation of the activity of enzyme 2.3.1.50.
# We incubated human glioma cells U118 in the presence or absence (control) of 2OHOA ([…], 24 h) and later incubated them with [^3H]palmitate for 5 minutes. After these periods of incubation, we extracted the cellular lipids and separated them by TLC. The bands correspond to each species of lipid extracted and the amount of radioactive palmitate incorporated was measured by liquid shining. As we can see, not only was there an important incorporation of the fraction of the SM (an indicator of the activity of enzyme EC 2.7.8.27), but also in the fraction of the ceramide, which indicates activity of enzyme EC 2.3.1.50 (serin-palmitoil transferase).
# enzyme EC 2.7.8.27 [1] = assay: Activity of enzyme EC 2.7.8.27 in U118 cells (NBD-Cer to NBD-SM); type: cell-based, human; conditions: U118, 200 μM, 5 minutes to 24 hours
# Description: (§1) FIG. 4. Compound 2OHOA acts directly on enzyme EC 2.7.8.27. In A, B, C, in all cases, we incubated cells or cellular extracts or means of incubation with the fluorescent stratum of this enzyme NBD-Cer (nitro-benzoxadiazol-il) ceramide], in the presence or absence (control, white bars) of 2OHOA (black bars). Then, we extracted the lipids and determined the levels of formation of NBD-SM per HPTLC (HP-TLC, high performance thin layer chromatography). The values are presented on the ordinate axis as the average±ESM (n=3-5).
# A. In vivo experiment of the activity of enzyme EC 2.7.8.27: we incubated U118 cells with NBD-Cer for 4 hours and then treated them with compound 2OHOA (200 μM) for different periods of time (5, 15, 60 minutes y 24 hours). Later, the cells homogenised and we measured the metabolisation of fluorofor NBD-Cer to become NBD-SM.
# The speed of the phenomenon clearly indicates direct and effective interaction between enantiomer 2OHOA and enzyme EC 2.7.8.27. So, this invention refers to the use of the aforementioned compounds as activators (enantiomer [−]), or inhibitors (enantiomer [+]) specific to enzyme EC 2.7.8.27.
# enzyme EC 2.7.8.27 [2] = assay: Activity of enzyme EC 2.7.8.27 in cellular extracts (NBD-Cer); type: biochemical; conditions: homogenised cells, 200 μM, NBD-Cer 2 hours
# Description: as §1
# B. In vitro experiment of the activity of enzyme EC 2.7.8.27 in cellular extracts, where we measured the activity of the enzyme after killing the cells. […] For these experiments, homogenised cells were incubated with compound 2OHOA (200 μM) and NBD-Cer for 2 hours.
# U937 cells = assay: Levels of SM in cell membranes, U937; type: cell-based, human; conditions: U937, 200 μM [−]2OHOA
# Description: (§2) The levels of SM, cultivated in the absence (control) or presence of 200 μM of [−]2OHOA, in normal cell membranes (MRC-5 and IMR90) were measured, and also in several types of tumoral cells (see Table 2). In all cases, we detected that the membranes of tumoral cells have SM levels of about half or a third of that in normal cells (FIG. 1). We can therefore assert that SM concentration is a biomarker which indicates tumorgenesis in human cells. On the other hand, treatments with the molecules of the present invention induce an increase of SM in the tumour cells which is not naturally occurring. […] For example, the spectrophotometry determination of solution fluorescence of the SM levels is a very simple, quick and efficient analysis method (FIG. 1D). Thus, this invention has generated a method for diagnosis for detecting the described pathological processes and pathologies in which there are SM level changes, and also for monitoring the efficiency of the therapy using molecules of the present invention and others of similar activity. Based on this knowledge, this invention also includes kits for diagnosing these diseases.
# HepG2 cells = assay: Levels of SM in cell membranes, HepG2; type: cell-based, human; conditions: HepG2, 200 μM [−]2OHOA
# Description: as §2
# T98G cells [3] = assay: Cell growth inhibition, T98G; type: cell-based, human; parameters: key: +: inhibition of cell growth; −: absence of effect
# A172 cells = assay: Cell growth inhibition, A172; type: cell-based, human; parameters: key: +: inhibition of cell growth; −: absence of effect
# C-6 cells = assay: Levels of SM in cell membranes, C-6; type: cell-based; conditions: C-6 rat glioma, 200 μM [−]2OHOA
# Description: as §2
# 1321N1 cells = assay: Cell growth inhibition, 1321N1; type: cell-based, human; parameters: key: +: inhibition of cell growth; −: absence of effect
# HeLa cells = assay: Levels of SM in cell membranes, HeLa; type: cell-based, human; conditions: 200 μM [−]2OHOA
# Description: as §2
# SF268 cells = assay: Cell growth inhibition, SF268; type: cell-based, human; parameters: key: +: inhibition of cell growth; −: absence of effect
# SH-SYSY cells = assay: Levels of SM in cell membranes, SH-SYSY; type: cell-based, human; conditions: 200 μM [−]2OHOA
# Description: as §2
# IMR90 cells = assay: Levels of SM in cell membranes, IMR90; type: cell-based, human; conditions: IMR90 non-tumoral fibroblast, 200 μM [−]2OHOA
# Description: as §2
# HT29 cells = assay: Levels of SM in cell membranes, HT29; type: cell-based, human; conditions: HT29, 200 μM [−]2OHOA
# Description: as §2
# PC3 cells = assay: Levels of SM in cell membranes, PC3; type: cell-based, human; conditions: PC3, 200 μM [−]2OHOA
# Description: as §2
# BXPC3 cells = assay: Levels of SM in cell membranes, BXPC3; type: cell-based, human; conditions: BXPC3, 200 μM [−]2OHOA
# Description: as §2
# T98G cells [4] = assay: Levels of SM in cell membranes, T98G; type: cell-based, human; conditions: 200 μM [−]2OHOA
# Description: as §2
# MDA-MB-231 cells = assay: Levels of SM in cell membranes, MDA-MB-231; type: cell-based, human; conditions: MDA-MB-231, 200 μM [−]2OHOA
# Description: as §2
# [5] = tested on: human lung tumour sections (A549 cells); assay: SM marking (lysenin) in A549 tumour sections from treated mice; type: in vivo; conditions: 600 or 900 mg/kg per day, oral, 50 days
# Description: C. Upper panel: specific marking by immunocytochemical techniques of the SM (left: lysenin followed by an antibody marked with Alexa 488 fluorophore), of nuclear DNA with Hoechst 33258 (center: Hoechst) or both (right, merge). Figures correspond to human lung tumour sections (A549 cells) formed in immuno-depressed mice treated with a vehicle (control) or with [−]2OHOA at 600 mg/kg per day or at 900 mg/kg per day (oral administration, 50 days).
# Bottom panel: The ordinate axis represents the quantification of the fluorescence intensity (arbitrary units) by confocal microscopy in slices of tumours shown in the upper panel (average+average standard deviation), coming from animals treated with a vehicle, or 2OHOA at 600 mg/kg per day (T600) or 900 mg/kg per day (T900) during 50 days. *** P<0.001.
Compound,activity of enzyme EC 2.3.1.50 ([3H]palmitate in ceramide fraction) (enzyme EC 2.3.1.50),activation of enzyme EC 2.7.8.27 in cell cultures (enzyme EC 2.7.8.27 [1]),activation of enzyme EC 2.7.8.27 in cellular extracts (enzyme EC 2.7.8.27 [2]),% SM after treatment (U937 cells) [%],% SM after treatment (HepG2 cells) [%],Effect (anti-proliferation effect) (T98G cells [3]),Effect (anti-proliferation effect) (A172 cells),% SM after treatment (C-6 cells) [%],Effect (anti-proliferation effect) (1321N1 cells),% SM after treatment (HeLa cells) [%],Effect (anti-proliferation effect) (SF268 cells),% SM after treatment (SH-SYSY cells) [%],% SM after treatment (IMR90 cells) [%],% SM after treatment (HT29 cells) [%],% SM after treatment (PC3 cells) [%],% SM after treatment (BXPC3 cells) [%],% SM after treatment (T98G cells [4]) [%],% SM after treatment (MDA-MB-231 cells) [%],levels of SM in A549 tumours [5]
"CCCCCCCC/C=C\CCCCCCC(O)C(=O)O (racemic) [2OHOA, 2-hydroxyoleic acid]",specific activator of enzyme EC 2.3.1.50,enzymatic activation is visible from the first few minutes of incubation,able to activate enzyme EC 2.7.8.27 by direct interaction,–,–,–,–,–,–,–,–,–,–,–,–,–,–,–,–
CCCCCCCC/C=C\CCCCCCC(O)C(=O)O (stereo not shown) [[−]2OHOA] [[−] HOOC—HOCH—(CH2)6—(CH═CH—CH2)1—(CH2)6—CH3],–,–,–,24,35,+,+,20,+,21,+,22,23,21,27,26,19,31,levels of SM significantly increase
